Test system: keratinocyte differentiation markers KRT1, KRT10, Loricrin, and Involucrin
Assay: inhibition of HBEGF-induced differentiation of HaCaT keratinocytes (RT-PCR)
Format: cell-based
Conditions: with 2.5 ng/mL recombinant human HBEGF protein, 24 hours
Experimental: Human HaCaT keratinocytes were cultured in DMEM culture medium containing 10% fetal bovine serum, 100 U/mL penicillin, and 100 µg/mL streptomycin. The cells were seeded into a 96-well plate at a density of […] and placed in an incubator containing 5% carbon dioxide for culture at 37°C for 24 hours. An equal volume of DMSO was added into control well 1, a 2.5 ng/mL recombinant human HBEGF protein (Abcam, ab205523) was added into control well 2, and a 2.5 ng/mL recombinant human HBEGF protein and corresponding concentrations of test compounds were added into sample wells. The cells were continuously cultured for 24 hours, washed with PBS, and then collected by high-speed centrifugation. Total RNA was extracted using Trizol reagent (Sigma Aldrich). 1 µg of RNA was reverse-transcribed into cDNA using a cDNA reverse transcription kit (Transgene Biotech, AT311-03). 1.25 µL of a primer (with a primer sequence shown in Table 2), 10 µL of an iTag Universal SYBR Green supermix (Bio-Rad, 172-5125), and an appropriate amount of DEPC ultrapure water were added to formulate 20 µL of a reaction solution to perform an RT-PCR reaction. Upon completion of the reaction, the reaction solution was subjected to agarose gel electrophoresis to determine the mRNA expression level of keratinocyte differentiation markers KRT1, KRT10, Loricrin, and Involucrin. […]

NC(=O)[C@H]1CCCc2c1[nH]c1ccc(Cl)cc21 [Compound of formula (I), (S)-6-chloro-2,3,4,9-tetrahydro-1H-carbazole-carboxamide]
mRNA expression level of the HaCaT differentiation markers KRT1, KRT10, Loricrin, and Involucrin: significantly inhibited

From patent EP4782431A1 (Suzhou Merna Therapeutics Co. Ltd, priority 2023, dated 2025)
